# Test results published in patent US20230365592A1 (Agios Pharmaceuticals, Inc., priority 2022, published 2023).
# Target: T1, human PAH with the R408W mutation (Homo sapiens, UniProt P00439, R408W)
# T1 construct: expressed in transfected cells
# T1 sequence (P00439 1-452 R408W): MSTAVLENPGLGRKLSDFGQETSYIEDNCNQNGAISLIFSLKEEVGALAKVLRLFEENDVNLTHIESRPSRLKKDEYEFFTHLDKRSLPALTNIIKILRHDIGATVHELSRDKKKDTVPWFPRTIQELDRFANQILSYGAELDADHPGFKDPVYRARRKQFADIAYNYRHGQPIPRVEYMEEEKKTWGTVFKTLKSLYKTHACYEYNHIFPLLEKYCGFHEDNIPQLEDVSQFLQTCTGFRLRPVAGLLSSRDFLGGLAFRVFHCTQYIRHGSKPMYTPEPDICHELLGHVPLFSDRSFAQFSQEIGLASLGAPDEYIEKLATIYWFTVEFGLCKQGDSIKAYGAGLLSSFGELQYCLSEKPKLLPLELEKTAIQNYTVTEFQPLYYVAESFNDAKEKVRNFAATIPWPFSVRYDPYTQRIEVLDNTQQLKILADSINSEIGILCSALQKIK
# Assay: Cell Based Phenylalanine Flux Assay;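 also: after compound treatment, cells received sepiapterin plus isotope-labelled Phenylalanine for 4 hours, then labelled Tyrosine in the medium was quantified, 10-point 2-fold dilution series run in duplicate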
# Conditions: A375 cells expressing R408W PAH; 24 hrs with compound, then 20 µM sepiapterin and 800 µM 13C9,15N-Phenylalanine for 4 hours; 13C-Tyrosine by LC-MS; average where tested multiple times; read-out: AC50
row,AC50 [µM],SMILES
1,> 5,Cc1cccc2cc(C3c4nc[nH]c4CCN3C(=O)c3nnc(C4CC(F)(F)C4)o3)nn12 (stereo not drawn) [listing 1 of 2 here]
2,> 5,Cn1ccc(-c2nnc(C(=O)N3CCc4[nH]cnc4C3c3cc4c(OC(F)F)cccn4n3)o2)n1 (stereo not drawn) [listing 1 of 2 here]
3,1 to 5,FC(F)c1cccc2cc(C3c4nc[nH]c4CCN3c3ncccn3)nn12 (stereo not drawn)
4,> 5,O=C(c1nnc(C2CC(F)(F)C2)o1)N1CCc2[nH]cnc2C1c1cc2cccc(Cl)n2n1 (stereo not drawn)
5,> 5,COCc1ncc(C(=O)N2CCc3[nH]cnc3C2c2cc3ccccn3n2)s1 (stereo not drawn) [listing 1 of 2 here]
6,> 5,COc1cccn2nc(C3c4nc[nH]c4CCN3C(=O)c3cnn4cc(-c5cnn(C)c5)ccc34)cc12 (stereo not drawn) [listing 1 of 2 here]
7,> 5,COc1ccc2c(C(=O)N3CCc4[nH]cnc4C3c3cc4c(OC)cccn4n3)cnn2c1 (stereo not drawn) [listing 1 of 2 here]
8,> 5,COc1ccc2c(C(=O)N3CCc4[nH]cnc4C3c3cc4cccc(C(F)F)n4n3)cnn2c1 (stereo not drawn) [listing 1 of 2 here]
9,> 5,COCc1ccc2c(C(=O)N3CCc4[nH]cnc4C3c3cc4cccc(Cl)n4n3)cnn2c1 (stereo not drawn) [listing 1 of 2 here]
10,> 5,COCCNc1nnc(C(=O)N2CCc3[nH]cnc3C2c2cc3ccccn3n2)o1 (stereo not drawn) [listing 1 of 2 here]
11,> 5,CN(C)Cc1ccc2c(C(=O)N3CCc4[nH]cnc4C3c3cc4cccc(C(F)F)n4n3)cnn2c1 (stereo not drawn) [listing 1 of 2 here]
12,1 to 5,Cn1cc(-c2nnc(N3CCc4[nH]cnc4C3c3cc4ccccn4n3)o2)cn1 (stereo not drawn)
13,1 to 5,O=C(c1nnc(N2CC(F)C2)o1)N1CCc2[nH]cnc2C1c1cc2ccccn2n1 (stereo not drawn)
14,1 to 5,Cc1cccc2cc(C3c4nc[nH]c4CCN3C(=O)c3nnc(C4CC(F)(F)C4)o3)nn12 (stereo not drawn) [listing 2 of 2 here]
15,1 to 5,Cn1ccc(-c2nnc(C(=O)N3CCc4[nH]cnc4C3c3cc4c(OC(F)F)cccn4n3)o2)n1 (stereo not drawn) [listing 2 of 2 here]
16,> 5,FC(F)c1cccn2nc(C3c4nc[nH]c4CCN3c3nc4ccccc4o3)cc12 (stereo not drawn)
17,1 to 5,O=C(c1nnc(-c2cnn(C(F)(F)F)c2)o1)N1CCc2[nH]cnc2C1c1cc2c(OC(F)(F)F)cccn2n1 (stereo not drawn)
18,> 5,FC(F)(F)c1cccn2nc(C3c4nc[nH]c4CCN3c3nc4ccccc4o3)cc12 (stereo not drawn)
19,1 to 5,Fc1cccn2nc(C3c4nc[nH]c4CCN3c3nc4ccccc4o3)cc12 (stereo not drawn)
20,1 to 5,Clc1cccc2cc(C3c4nc[nH]c4CCN3c3nnc(C4CC4)o3)nn12 (stereo not drawn)
21,> 5,Cc1nnc(N2CCc3[nH]cnc3C2c2cc3cccc(F)n3n2)o1 (stereo not drawn)
22,1 to 5,Fc1cccc2cc(C3c4nc[nH]c4CCN3c3ncccn3)nn12 (stereo not drawn)
23,1 to 5,Cc1cccc2cc(C3c4nc[nH]c4CCN3c3ncccn3)nn12 (stereo not drawn)

row,AC50 [µM],SMILES
1,1 to 5,FC(F)c1cccn2nc(C3c4[nH]cnc4CCN3c3nnc(-c4ccccn4)o3)cc12 (stereo not drawn)
2,1 to 5,COc1cccn2nc(C3c4nc[nH]c4CCN3C(=O)c3nnc(-c4cnccn4)o3)cc12 (stereo not drawn)
3,> 5,COc1cccn2nc(C3c4nc[nH]c4CCN3C(=O)c3nnc(-c4ncccn4)o3)cc12 (stereo not drawn)
4,1 to 5,Fc1cccc2cc(C3c4nc[nH]c4CCN3c3nnc(-c4ccccn4)o3)nn12 (stereo not drawn)
5,1 to 5,Cc1ccc2c(C(=O)N3CCc4[nH]cnc4C3c3cc4cccc(C(F)(F)F)n4n3)cnn2c1 (stereo not drawn)
6,1 to 5,FC(F)c1nnc(N2CCc3[nH]cnc3C2c2cc3cccc(C(F)(F)F)n3n2)o1 (stereo not drawn)
7,1 to 5,COCc1ncc(C(=O)N2CCc3[nH]cnc3C2c2cc3ccccn3n2)s1 (stereo not drawn) [listing 2 of 2 here]
8,1 to 5,FC(F)c1cccc2cc(C3c4nc[nH]c4CCN3c3nnc(C4CC4)o3)nn12 (stereo not drawn)
9,1 to 5,Cc1nnc(N2CCc3[nH]cnc3C2c2cc3c(C(F)(F)F)cccn3n2)o1 (stereo not drawn)
10,1 to 5,Cc1nnc(N2CCc3[nH]cnc3C2c2cc3cccc(C(F)(F)F)n3n2)o1 (stereo not drawn)
11,1 to 5,Cc1nnc(N2CCc3[nH]cnc3C2c2cc3cccc(C)n3n2)o1 (stereo not drawn)
12,1 to 5,COc1cccn2nc(C3c4nc[nH]c4CCN3C(=O)c3nnc(-c4ncccc4F)o3)cc12 (stereo not drawn)
13,1 to 5,O=C(c1cnn2cc(N3CCOCC3)ccc12)N1CCc2[nH]cnc2C1c1cc2c(F)cccn2n1 (stereo not drawn)
14,> 5,COc1cccn2nc(C3c4nc[nH]c4CCN3C(=O)c3cnn4cc(N5CCOCC5)ccc34)cc12 (stereo not drawn)
15,1 to 5,COc1cccn2nc(C3c4nc[nH]c4CCN3C(=O)c3cnn4cc(-c5cnn(C)c5)ccc34)cc12 (stereo not drawn) [listing 2 of 2 here]
16,1 to 5,Cc1cccn2nc(C3c4nc[nH]c4CCN3C(=O)c3cnn4cc(N5CCOCC5)ccc34)cc12 (stereo not drawn)
17,1 to 5,O=C(c1cnn2cc(N3CCOCC3)ccc12)N1CCc2[nH]cnc2C1c1cc2cccc(C(F)(F)F)n2n1 (stereo not drawn)
18,1 to 5,COCc1ccc2c(C(=O)N3CCc4[nH]cnc4C3c3cc4c(C(F)F)cccn4n3)cnn2c1 (stereo not drawn)
19,1 to 5,COc1ccc2c(C(=O)N3CCc4[nH]cnc4C3c3cc4c(OC)cccn4n3)cnn2c1 (stereo not drawn) [listing 2 of 2 here]
20,> 5,FC(F)(F)c1cccn2nc(C3c4nc[nH]c4CCN3c3nnc(N4CCOCC4)o3)cc12 (stereo not drawn)
21,1 to 5,Fc1cccn2nc(C3c4nc[nH]c4CCN3c3nnc(N4CCOCC4)o3)cc12 (stereo not drawn)
22,1 to 5,Cc1cccn2nc(C3c4nc[nH]c4CCN3c3nnc(N4CCOCC4)o3)cc12 (stereo not drawn)
23,1 to 5,COCc1ccc2c(C(=O)N3CCc4[nH]cnc4C3c3cc4cccc(C(F)F)n4n3)cnn2c1 (stereo not drawn)

row,AC50 [µM],SMILES
1,1 to 5,COc1ccc2c(C(=O)N3CCc4[nH]cnc4C3c3cc4cccc(C(F)F)n4n3)cnn2c1 (stereo not drawn) [listing 2 of 2 here]
2,1 to 5,COCc1ccc2c(C(=O)N3CCc4[nH]cnc4C3c3cc4cccc(Cl)n4n3)cnn2c1 (stereo not drawn) [listing 2 of 2 here]
3,1 to 5,CN(C)C(=O)c1nnc(N2CCc3[nH]cnc3C2c2cc3c(C(F)F)cccn3n2)o1 (stereo not drawn)
4,1 to 5,CN(C)C(=O)c1nnc(N2CCc3[nH]cnc3C2c2cc3c(F)cccn3n2)o1 (stereo not drawn)
5,1 to 5,COCc1ccc2c(C(=O)N3CCc4[nH]cnc4C3c3cc4cccc(C)n4n3)cnn2c1 (stereo not drawn)
6,1 to 5,COCc1ccc2c(C(=O)N3CCc4[nH]cnc4C3c3cc4cccc(C(F)(F)F)n4n3)cnn2c1 (stereo not drawn)
7,1 to 5,COCc1ccc2c(C(=O)N3CCc4[nH]cnc4C3c3cc4c(OC)cccn4n3)cnn2c1 (stereo not drawn)
8,1 to 5,O=C(c1cnn2cc(C3CC3)ccc12)N1CCc2[nH]cnc2C1c1cc2cccc(C(F)(F)F)n2n1 (stereo not drawn)
9,1 to 5,Cc1cccc2cc(C3c4nc[nH]c4CCN3C(=O)c3cnn4cc(C5CC5)ccc34)nn12 (stereo not drawn)
10,1 to 5,COc1ccc2c(C(=O)N3CCc4[nH]cnc4C3c3cc4cccc(C(F)(F)F)n4n3)cnn2c1 (stereo not drawn)
11,1 to 5,Cc1ccc2c(C(=O)N3CCc4[nH]cnc4C3c3cc4cccc(C(F)F)n4n3)cnn2c1 (stereo not drawn)
12,1 to 5,O=C(c1cnn2ccccc12)N1CCc2[nH]cnc2C1c1cc2cccc(C(F)F)n2n1 (stereo not drawn)
13,> 5,COCCNc1nnc(C(=O)N2CCc3[nH]cnc3C2c2cc3ccccn3n2)o1 (stereo not drawn) [listing 2 of 2 here]
14,1 to 5,O=C(c1nnc(NC2CC2)o1)N1CCc2[nH]cnc2C1c1cc2ccccn2n1 (stereo not drawn)
15,1 to 5,Cc1cccn2nc(C3c4nc[nH]c4CCN3c3nnc(C(=O)N(C)C)o3)cc12 (stereo not drawn)
16,1 to 5,CN(C)C(=O)c1nnc(N2CCc3[nH]cnc3C2c2cc3ccccn3n2)o1 (stereo not drawn)
17,1 to 5,CN(C)Cc1ccc2c(C(=O)N3CCc4[nH]cnc4C3c3cc4c(C(F)F)cccn4n3)cnn2c1 (stereo not drawn)
18,1 to 5,CN(C)Cc1ccc2c(C(=O)N3CCc4[nH]cnc4C3c3cc4c(F)cccn4n3)cnn2c1 (stereo not drawn)
19,1 to 5,CN(C)Cc1ccc2c(C(=O)N3CCc4[nH]cnc4C3c3cc4cccc(C(F)F)n4n3)cnn2c1 (stereo not drawn) [listing 2 of 2 here]
20,1 to 5,CN(C)Cc1ccc2c(C(=O)N3CCc4[nH]cnc4C3c3cc4cccc(Cl)n4n3)cnn2c1 (stereo not drawn)
21,1 to 5,CN(C)Cc1ccc2c(C(=O)N3CCc4[nH]cnc4C3c3cc4cccc(F)n4n3)cnn2c1 (stereo not drawn)
22,1 to 5,CN(C)Cc1ccc2c(C(=O)N3CCc4[nH]cnc4C3c3cc4cccc(C(F)(F)F)n4n3)cnn2c1 (stereo not drawn)
23,1 to 5,Cc1ncoc1C(=O)N1CC2(CC2)c2[nH]cnc2C1c1cc2ccccn2n1 (stereo not drawn)
